Legend:
depression = assay: Case history: person seriously depressed for over 10 years; assay type: in vivo, human; conditions: one patient; ibuprofen alone
Description: Because there is evidence of elevated formation of prostaglandins in depression, they were given a combined COX-1 and COX-2 inhibitor, ibuprofen. […] The ibuprofen was stopped and they were treated with ethyl-eicosapentaenoate at a dose of 1 g/day. This seemed to have a modest effect but they remained far from well.

[1] = tested on: forgetfulness, possibly developing Alzheimer's disease (AD); assay: Case history: forgetful person, possible Alzheimer's disease; assay type: in vivo, human; conditions: one patient; indomethacin alone over six months or so
Description: A person had become very forgetful and their family was concerned that they might be developing Alzheimer's disease (AD). Because there is evidence that the NSAID indomethacin may be able to slow down the progression of AD, their child, who was a doctor, prescribed indomethacin. […] Because of animal work on the beneficial effects of AA in the aging rat brain, 800 mg of AA in triglyceride form was added to the treatment regime.

Structure (SMILES)	effect on depression (depression)	effect on forgetfulness [1]
CC(C)Cc1ccc(C(C)C(=O)O)cc1 (centres unmarked) [ibuprofen]	marginal effect but this was not apparent to observers	
COc1ccc2c(c1)c(CC(=O)O)c(C)n2C(=O)c1ccc(Cl)cc1 [indomethacin]		may have had a slight effect but there was no dramatic change
